Laboratory results taken from patent US12304912B2, “Fused bicyclic RAF inhibitors and methods for use thereof” (Jazz Pharmaceuticals Ireland Limited, priority 2020, dated 2025).
Read-outs that look alike come from different tables or passages of the source.

Columns and labels:
[1] = system: constitutive ERK phosphorylation in HCT-116 cells; assay: HCT-116 AlphaLISA SureFire pERK1/2 cellular assay; format: cell-based, human; conditions: Homo sapiens, read-out: pERK HCT116 (2 hr) Abs pIC50 (converted)
Summary of the method: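 Cells seeded overnight (30,000/well for 2 h, 15,000/well for 24 h), then dosed in 1% FBS medium with a 10-point series from 1 μM top, 1/3 log steps, for 2 or 24 h at 37 °C. Lysates read by AlphaLISA for Thr202/Tyr204 pERK1/2; absolute IC50 versus DMSO control.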

[2] = Microsomal stability assay, mouse liver microsomes (MLM); format: in vitro ADME; conditions: 0.5 mg/mL protein, 1 μM substrate, 37° C.
Summary of the method: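 Substrate depletion: 1 μM compound incubated at 37° C. with cryopreserved mouse or human liver microsomes at 0.5 mg·mL^−1 protein. Timed aliquots quenched in ice-cold organic solvent and measured by LC-MS/MS; t1/2 and CLint derived from the slope of ln % remaining versus time.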

[3] = Plasma protein binding assay, mouse plasma (mPPB); format: in vitro ADME; conditions: 5 μM, equilibrium dialysis 4 hours at 37° C.
Summary of the method: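 Equilibrium dialysis of 5 μM compound in previously frozen human or mouse plasma against phosphate buffer, 4 h at 37 °C. Both chambers quantified by LC-MS/MS; % free = (1−((PC−PF)/PC))×100.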

[4] = HCT-116, HCT116 cells, 2 hr, Abs

SMILES | IC50 [1, 4] | microsomal CLint at 1 μM [2] | mPPB (% free) [3] | MLM (CLint) [2] | IC50 ([1]; HCT-116, 2 h)
Cn1nc(C(F)(F)F)cc1-c1c[nH]c(C2COc3ccc(Oc4ccnc5c4CCC(=O)N5)cc3C2)n1 (stereo not drawn) [Compound 107, 5-[3-[4-[2-methyl-5-(trifluoromethyl)pyrazol-3-yl]-1H-imidazol-2-yl]chroman-6-yl]oxy-3,4-dihydro-1H-1,8-naphthyridin-2-one] | 191 nM | 12.5 µL/min/mg | 0.3 % free | – | –
Cc1ccc(-c2c[nH]c(C3COc4ccc(Oc5ccnc6c5CCC(=O)N6)cc4C3)n2)s1 (stereo not drawn) [Compound 110] | 89.1 nM | 55.5 µL/min/mg | 0.1 % free | – | –
CCc1cc(-c2c[nH]c(C3COc4ccc(Oc5ccnc6c5CCC(=O)N6)cc4C3)n2)n(C)n1 (stereo not drawn) [Compound 111] | 219 nM | 26.9 µL/min/mg | 1.73 % free | – | –
Cc1cc(-c2c[nH]c(C3COc4ccc(Oc5ccnc6c5CCC(=O)N6)cc4C3)n2)n(C(C)C)n1 (stereo not drawn) [Compound 112, 5-[3-[4-(2-isopropyl-5-methyl-pyrazol-3-yl)-1H-imidazol-2-yl]chroman-6-yl]oxy-3,4-dihydro-1H-1,8-naphthyridin-2-one] | > 1000 nM | 55.5 µL/min/mg | 2.0 % free | – | –
CCc1cc(-c2c[nH]c(C3COc4ccc(Oc5ccnc6c5CCC(=O)N6)cc4C3)n2)n(C2CC2)n1 (stereo not drawn) [Compound 113, 5-[3-[4-(2-cyclopropyl-5-ethyl-pyrazol-3-yl)-1H-imidazol-2-yl]chroman-6-yl]oxy-3,4-dihydro-1H-1,8-naphthyridin-2-one] | > 1000 nM | 38.2 µL/min/mg | 1.6 % free | – | –
Cc1cc(-c2c[nH]c(C3COc4ccc(Oc5ccnc6c5CCC(=O)N6)cc4C3)n2)n(C2CC2)n1 (stereo not drawn) [Compound 114, 5-[3-[4-(2-cyclopropyl-5-methyl-pyrazol-3-yl)-1H-imidazol-2-yl]chroman-6-yl]oxy-3,4-dihydro-1H-1,8-naphthyridin-2-one] | > 1000 nM | 12.6 µL/min/mg | 2.0 % free | – | –
Cc1cc(-c2c[nH]c(C3COc4ccc(Oc5ccnc6c5CCC(=O)N6)cc4C3)n2)ccn1 (stereo not drawn) [Compound 117, 5-[3-[4-(2-methyl-4-pyridyl)-1H-imidazol-2-yl]chroman-6-yl]oxy-3,4-dihydro-1H-1,8-naphthyridin-2-one] | 107 nM | 13.4 µL/min/mg | 2.3 % free | – | –
CCc1cc(-c2c[nH]c(C3COc4ccc(Oc5ccnc6c5CCC(=O)N6)cc4C3)n2)ccn1 (stereo not drawn) [Compound 118, 5-[3-[4-(2-ethyl-4-pyridyl)-1H-imidazol-2-yl]chroman-6-yl]oxy-3,4-dihydro-1H-1,8-naphthyridin-2-one] | 269 nM | 40 µL/min/mg | 1.0 % free | – | –
COc1csc(-c2c[nH]c(C3COc4ccc(Oc5ccnc6c5CCC(=O)N6)cc4C3)n2)c1 (stereo not drawn) [Compound 122, 5-[3-[5-(4-methoxy-2-thienyl)-1H-imidazol-2-yl]chroman-6-yl]oxy-3,4-dihydro-1H-1,8-naphthyridin-2-one] | 132 nM | 70.8 µL/min/mg | 0.21 % free | – | –
COc1ccsc1-c1c[nH]c(C2COc3ccc(Oc4ccnc5c4CCC(=O)N5)cc3C2)n1 (stereo not drawn) [Compound 123] | 63.1 nM | 126 µL/min/mg | 0.25 % free | – | –
CCn1nc(C)cc1-c1c[nH]c(C2COc3ccc(Oc4ccnc5c4CCC(=O)N5)cc3C2)n1 (stereo not drawn) [Compound 124, 5-[3-[4-(2-ethyl-5-methyl-pyrazol-3-yl)-1H-imidazol-2-yl]chroman-6-yl]oxy-3,4-dihydro-1H-1,8-naphthyridin-2-one] | 347 nM | 28.2 µL/min/mg | 3.9 % free | – | –
Cc1cc(-c2c[nH]c(C3COc4ccc(Oc5ccnc6c5CCC(=O)N6)cc4C3)n2)n(CC(F)(F)F)n1 (stereo not drawn) [Compound 126, 5-[3-[4-[5-methyl-2-(2,2,2-trifluoroethyl)pyrazol-3-yl]-1H-imidazol-2-yl]chroman-6-yl]oxy-3,4-dihydro-1H-1,8-naphthyridin-2-one] | 501 nM | 55.7 µL/min/mg | 0.7 % free | – | –
O=C1CCc2c(Oc3ccc4c(c3)CC(c3nc(-c5ccc(C(F)(F)F)nc5)c[nH]3)CO4)ccnc2N1 (stereo not drawn) [Compound 127, 5-[3-[4-[6-(trifluoromethyl)-3-pyridyl]-1H-imidazol-2-yl]chroman-6-yl]oxy-3,4-dihydro-1H-1,8-naphthyridin-2-one] | 417 nM | 13.4 µL/min/mg | 0.2 % free | – | –
Cn1ncc2ccc(-c3c[nH]c(C4COc5ccc(Oc6ccnc7c6CCC(=O)N7)cc5C4)n3)cc21 (stereo not drawn) [Compound 130, 5-[3-[4-(1-methylindazol-6-yl)-1H-imidazol-2-yl]chroman-6-yl]oxy-3,4-dihydro-1H-1,8-naphthyridin-2-one] | 141 nM | 23.5 µL/min/mg | 0.2 % free | – | –
O=C1CCc2c(Oc3ccc4c(c3)CC(c3nc(C5CCOCC5)c[nH]3)CO4)ccnc2N1 (stereo not drawn) [Compound 132, 5-[3-(4-tetrahydropyran-4-yl-1H-imidazol-2-yl)chroman-6-yl]oxy-3,4-dihydro-1H-1,8-naphthyridin-2-one] | 347 nM | 9.3 µL/min/mg | 10.1 % free | – | –
O=C1CCc2c(Oc3ccc4c(c3)CC(c3nc5ccncc5[nH]3)CO4)ccnc2N1 (stereo not drawn) [Compound 134, 5-[3-(3H-imidazo[4,5-c]pyridin-2-yl)chroman-6-yl]oxy-3,4-dihydro-1H-1,8-naphthyridin-2-one] | > 1000 nM | 72.4 µL/min/mg | 9.5 % free | – | –
O=C(Nc1cc(Oc2ccc3c(c2)CC(c2nc(-c4ccccc4)c[nH]2)CO3)ccn1)C1CC1(F)F (stereo not drawn) [Compound 137, 2,2-difluoro-N-[4-[3-(4-phenyl-1H-imidazol-2-yl)chroman-6-yl]oxy-2-pyridyl]cyclopropanecarboxamide] | 35.5 nM | – | <0.1 % free | 277 µL/min/mg | –
O=C(Nc1cc(Oc2ccc3c(c2)CC(c2nc(-c4ccccc4)c[nH]2)CO3)ccn1)C1(F)CC1 (stereo not drawn) [Compound 138] | 275 nM | – | <0.1 % free | 277 µL/min/mg | –
O=C(Nc1cc(Oc2ccc3c(c2)CC(c2nc(-c4ccccc4)c[nH]2)CO3)ccn1)C1CC(F)(F)C1 (stereo not drawn) [Compound 139] | 200 nM | – | <0.1 % free | 277 µL/min/mg | –
c1ccc(-c2c[nH]c(C3COc4ccc(Oc5ccnc(Nc6ccccn6)c5)cc4C3)n2)cc1 (stereo not drawn) [Compound 140, 4-[3-(4-phenyl-1H-imidazol-2-yl)chroman-6-yl]oxy-N-(2-pyridyl)pyridin-2-amine] | > 1000 nM | 81.1 µL/min/mg | 0.2 % free | – | –
Cc1c[nH]c(-c2cc(Oc3ccc4c(c3)CC(c3nc(-c5ccccc5)c[nH]3)CO4)ccn2)n1 (stereo not drawn) [Compound 143, 2-(4-methyl-1H-imidazol-2-yl)-4-[3-(4-phenyl-1H-imidazol-2-yl)chroman-6-yl]oxy-pyridine] | 309 nM | 86.1 µL/min/mg | <0.1 % free | – | –
O=C(Cn1ccnc1)Nc1cc(Oc2ccc3c(c2)CC(c2nc(-c4ccccc4)c[nH]2)CO3)ccn1 (stereo not drawn) [Compound 144] | 45.7 nM | 29.3 µL/min/mg | 0.8 % free | – | –
O=C(CN1CC[C@@H](O)C1)Nc1cc(Oc2ccc3c(c2)CC(c2nc(-c4ccccc4)c[nH]2)CO3)ccn1 (stereo partly drawn) [Compound 145] | 166 nM | 147 µL/min/mg | 0.53 % free | – | –
CN1CCN(CC(=O)Nc2cc(Oc3ccc4c(c3)CC(c3nc(-c5ccccc5)c[nH]3)CO4)ccn2)CC1 (stereo not drawn) [Compound 146, 2-(4-methylpiperazin-1-yl)-N-[4-[3-(4-phenyl-1H-imidazol-2-yl)chroman-6-yl]oxy-2-pyridyl]acetamide] | 178 nM | 89.7 µL/min/mg | 0.7 % free | – | –
CN1CCC(C(=O)Nc2cc(Oc3ccc4c(c3)CC(c3nc(-c5ccccc5)c[nH]3)CO4)ccn2)CC1 (stereo not drawn) [Compound 147, 1-methyl-N-[4-[3-(4-phenyl-1H-imidazol-2-yl)chroman-6-yl]oxy-2-pyridyl]piperidine-4-carboxamide] | 324 nM | 102 µL/min/mg | 0.8 % free | – | –
O=C(Nc1nccc(Oc2ccc3c(c2)CC(c2nc(-c4ccccc4)c[nH]2)CO3)n1)C1CC1 (stereo not drawn) [Compound 148, N-[4-[3-(4-phenyl-1H-imidazol-2-yl)chroman-6-yl]oxypyrimidin-2-yl]cyclopropanecarboxamide] | 302 nM | 211 µL/min/mg | 0.4 % free | – | –
O=C(CN1CCOCC1)Nc1cc(Oc2ccc3c(c2)CC(c2nc(-c4ccccc4)c[nH]2)CO3)ccn1 (stereo not drawn) [Compound 149] | 316 nM | 231 µL/min/mg | 0.14 % free | – | –
O=C(Nc1cc(Oc2ccc3c(c2)CC(c2nc(-c4ccccc4)c[nH]2)CO3)ncn1)C1CC1 (stereo not drawn) [Compound 151, N-[6-[3-(4-phenyl-1H-imidazol-2-yl)chroman-6-yl]oxypyrimidin-4-yl]cyclopropanecarboxamide] | – | 161 µL/min/mg | <0.1 % free | – | 178 nM
O=C(CN1CCCC1)Nc1cc(Oc2ccc3c(c2)CC(c2nc(-c4ccccc4)c[nH]2)CO3)ccn1 (stereo not drawn) [Compound 152] | 209 nM | 259 µL/min/mg | 0.47 % free | – | –
